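48-hour exposure; five concentrations; linearly interpolated endpoints. GI50 is the concentration that inhibits growth by half.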 The source made the active and inactive calls. Rule as the data show it: active = GI50 up to about 1.1 µM and inactive = higher.
Experiments:
Experiment in all cases: inhibition of tumour cell growth, NCI panel, 48 h
MDA-MB-231 = system: MDA-MB-231
HCT-116 = system: HCT-116
LOX IMVI = system: LOX IMVI
NCI-H226 = system: NCI-H226
ACHN = system: ACHN
NCI-H460 = system: NCI-H460
MOLT-4 = system: MOLT-4
PC-3 = system: PC-3
CCRF-CEM = system: CCRF-CEM
M14 = system: M14
HL-60 = system: HL-60
BT-549 = system: BT-549
SW-620 = system: SW-620
SR = system: SR
MDA-MB-435 = system: MDA-MB-435
NCI/ADR-RES = system: NCI/ADR-RES
786-0 = system: 786-0
SF-295 = system: SF-295
U-251 = system: U-251
HT-29 = system: HT-29
OVCAR-4 = system: OVCAR-4
Hs-578T = system: Hs-578T
CAKI-1 = system: CAKI-1
Malme-3M = system: Malme-3M
K562 = system: K562
SF-539 = system: SF-539
HOP-62 = system: HOP-62
UACC-62 = system: UACC-62
OVCAR-5 = system: OVCAR-5
SK-MEL-5 = system: SK-MEL-5
T47D = system: T47D
UACC-257 = system: UACC-257
HOP-92 = system: HOP-92
SK-MEL-2 = system: SK-MEL-2
KM12 = system: KM12
SK-MEL-28 = system: SK-MEL-28
NCI-H23 = system: NCI-H23
NCI-H522 = system: NCI-H522
DU-145 = system: DU-145
HCT-15 = system: HCT-15
UO-31 = system: UO-31
SNB-19 = system: SNB-19
IGROV-1 = system: IGROV-1
EKVX = system: EKVX
A549 = system: A549
OVCAR-8 = system: OVCAR-8
OVCAR-3 = system: OVCAR-3
A498 = system: A498
SNB-75 = system: SNB-75
SN12C = system: SN12C
MCF7 = system: MCF7
SK-OV-3 = system: SK-OV-3
RPMI-8226 = system: RPMI-8226
COLO 205 = system: COLO 205
RXF 393 = system: RXF 393
TK-10 = system: TK-10
SF-268 = system: SF-268
MDA-N = system: MDA-N
HCC 2998 = system: HCC 2998

Measured: GI50

NNc1nncn1N
inactive: MDA-MB-231 > 100 µM | HCT-116 > 100 µM | LOX IMVI > 90.4 µM | NCI-H226 > 100 µM | ACHN > 100 µM | NCI-H460 > 100 µM | MOLT-4 > 62.4 µM | PC-3 > 100 µM | CCRF-CEM 1.25 µM | M14 > 100 µM | HL-60 5.71 µM | BT-549 > 100 µM | SW-620 > 57.1 µM | SR 39.1 µM | MDA-MB-435 19.2 µM | NCI/ADR-RES > 90.6 µM | 786-0 > 80 µM | SF-295 > 100 µM | U-251 > 100 µM | HT-29 > 100 µM | OVCAR-4 38.1 µM | Hs-578T > 100 µM | CAKI-1 > 100 µM | Malme-3M > 55 µM | K562 > 76 µM | SF-539 > 53.8 µM | HOP-62 > 100 µM | UACC-62 > 100 µM | OVCAR-5 > 100 µM | SK-MEL-5 > 100 µM | T47D 63 µM | UACC-257 > 100 µM | HOP-92 > 100 µM | SK-MEL-2 > 100 µM | KM12 > 100 µM | SK-MEL-28 > 100 µM | NCI-H23 > 51.2 µM | NCI-H522 > 93.1 µM | DU-145 > 55.2 µM | UO-31 84.1 µM | SNB-19 > 100 µM | IGROV-1 > 100 µM | EKVX > 100 µM | A549 > 100 µM | OVCAR-8 > 96.6 µM | OVCAR-3 > 49.7 µM | A498 > 100 µM | SNB-75 > 100 µM | SN12C > 73.1 µM | MCF7 > 100 µM | SK-OV-3 > 100 µM | RPMI-8226 72.1 µM | COLO 205 > 100 µM | RXF 393 > 100 µM | TK-10 > 100 µM | SF-268 > 100 µM
> 100 µM: HCT-15

FC(F)(Sc1ncccn1)c1nc2ccccc2o1
> 100 µM: HCT-15
inactive: MDA-MB-231 > 100 µM | HCT-116 84.3 µM | NCI-H226 > 100 µM | ACHN > 100 µM | NCI-H460 > 100 µM | MOLT-4 57.3 µM | PC-3 89.1 µM | CCRF-CEM 33.5 µM | M14 > 100 µM | BT-549 > 100 µM | SW-620 > 100 µM | SR 37.8 µM | MDA-MB-435 99.1 µM | NCI/ADR-RES > 100 µM | 786-0 > 100 µM | MDA-N > 100 µM | SF-295 > 100 µM | U-251 55.5 µM | HT-29 > 100 µM | OVCAR-4 > 100 µM | CAKI-1 > 100 µM | Malme-3M > 100 µM | K562 77.4 µM | HCC 2998 > 100 µM | SF-539 > 100 µM | HOP-62 > 100 µM | UACC-62 > 100 µM | OVCAR-5 > 100 µM | SK-MEL-5 > 100 µM | T47D > 100 µM | UACC-257 > 100 µM | HOP-92 56.8 µM | SK-MEL-2 > 100 µM | KM12 > 100 µM | SK-MEL-28 > 100 µM | NCI-H23 > 100 µM | NCI-H522 > 100 µM | DU-145 > 100 µM | UO-31 99.3 µM | IGROV-1 > 100 µM | A549 > 100 µM | OVCAR-8 > 100 µM | OVCAR-3 > 100 µM | A498 > 100 µM | SNB-75 22 µM | SN12C > 100 µM | MCF7 > 100 µM | SK-OV-3 > 100 µM | RPMI-8226 > 100 µM | COLO 205 > 100 µM | RXF 393 79.3 µM | TK-10 > 100 µM | SF-268 > 100 µM

Nc1cc2nc(-c3ccccc3)cn2cn1
inactive: MDA-MB-231 > 100 µM | HCT-116 > 100 µM | LOX IMVI 84.5 µM | NCI-H226 > 100 µM | ACHN > 100 µM | NCI-H460 99.1 µM | MOLT-4 > 100 µM | PC-3 50 µM | CCRF-CEM 86.5 µM | M14 > 100 µM | HL-60 > 100 µM | BT-549 > 100 µM | SW-620 > 100 µM | MDA-MB-435 > 100 µM | NCI/ADR-RES > 100 µM | 786-0 > 100 µM | MDA-N > 100 µM | SF-295 > 100 µM | U-251 > 100 µM | HT-29 47.2 µM | OVCAR-4 > 100 µM | CAKI-1 89.9 µM | Malme-3M 20.2 µM | K562 > 100 µM | SF-539 > 100 µM | HOP-62 > 100 µM | UACC-62 54.6 µM | OVCAR-5 79.6 µM | SK-MEL-5 35.5 µM | T47D > 100 µM | SK-MEL-2 > 100 µM | KM12 66.2 µM | SK-MEL-28 > 100 µM | NCI-H23 > 100 µM | DU-145 > 100 µM | UO-31 32.4 µM | SNB-19 > 100 µM | EKVX 29.3 µM | A549 > 100 µM | OVCAR-8 > 100 µM | OVCAR-3 > 100 µM | A498 27.9 µM | SNB-75 40.2 µM | SN12C 85.1 µM | MCF7 70.1 µM | SK-OV-3 > 100 µM | RPMI-8226 65 µM | COLO 205 > 100 µM | RXF 393 50.9 µM | TK-10 50.5 µM | SF-268 > 100 µM
> 100 µM: HCT-15
